Experimental data from patent US20110262546A1 (priority 2008, published 2011).

Experiments:
ScN2a cells = conditions: mouse
ScGT1 cells = conditions: for % cell viability ± SEM ScGT1: mouse
PrP^Sc in ScGT1 cells = PrP^Sc in ScGT1 cells (Mus musculus, UniProt P04925); experiment: cell-based
PrP^Sc in ScN2a cells = PrP^Sc in ScN2a cells (Mus musculus, UniProt P04925); experiment: cell-based
Chain of PrP^Sc in ScN2a cells (P04925 23-230 limits assumed): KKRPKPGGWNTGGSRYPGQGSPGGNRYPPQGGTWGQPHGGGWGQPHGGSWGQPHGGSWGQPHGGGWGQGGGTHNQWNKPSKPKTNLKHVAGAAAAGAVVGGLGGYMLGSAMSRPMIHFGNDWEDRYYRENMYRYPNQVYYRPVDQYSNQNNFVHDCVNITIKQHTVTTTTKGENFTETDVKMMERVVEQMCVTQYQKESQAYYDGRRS

Chain of PrP^Sc in ScGT1 cells (P04925 23-230 limits assumed): as above

Row | Molecule | % cell viability ± SEM ScN2a (ScN2a cells) [%] | % cell viability ± SEM ScGT1 (ScGT1 cells) [%] | EC50 (PrP^Sc in ScGT1 cells) [µM] | EC50 (PrP^Sc in ScN2a cells) [µM] | cytotoxicity to the neurons (ScGT1 cells) | dead cells (ScGT1 cells)
1 | CCN(CC)CCCC(C)Nc1c2ccc(Cl)cc2nc2ccc(OC)cc12 (centres unmarked) [Quinacrine, quinacrine] | 100 ± 2 | 100 ± 4 |  |  |  | 
2 | CN(C)CCCN1c2ccccc2CCc2ccccc21 [Imipramime, imipramine] | 100 ± 5 | 100 ± 7 | 6.2 ± 0.4 | 5.5 ± 0.5 |  | 
3 | sodium polystyrenesulfonate [PSS] |  |  |  |  | weak cytotoxicity | around 20%
